Active and inactive are the calls of the source. The rule behind the calls is not given here.
What was measured:
[1] = system: MDA-MB-231; experiment: Cytotoxicity against human MDA-MB-231 cells assessed as reduction in cell viability incubated for 24 hrs by CellTiter-Glo luminescent assay; assay type: functional, cell-based
[2] = system: MDA-MB-468; experiment: Cytotoxicity against human MDA-MB-468 cells assessed as reduction in cell viability incubated for 24 hrs by CellTiter-Glo luminescent assay; assay type: functional, cell-based
[3] = target: Dihydroorotate dehydrogenase (quinone), mitochondrial (Homo sapiens, UniProt Q02127); experiment: Inhibition of recombinant N-terminal His-tagged human DHODH (31 to 395 residues) expressed in Escherichia coli using DL-dihydroorotic acid as substrate and Q0 as coenzyme by DCIP based assay
[4] = system: LNCaP C4-2B; experiment: Cytotoxicity against human LNCaP C4-2B cells assessed as reduction in cell viability incubated for 24 hrs by CellTiter-Glo luminescent assay; assay type: functional, cell-based
[5] = system: 143B; experiment: Cytotoxicity against human 143B cells assessed as reduction in cell viability incubated for 24 hrs by CellTiter-Glo luminescent assay; assay type: functional, cell-based
[6] = system: HL-60; experiment: Cytotoxicity against human HL-60 cells assessed as reduction in cell viability incubated for 24 hrs by CellTiter-Glo luminescent assay; assay type: functional, cell-based
[7] = system: MDA-MB-231; experiment: Induction of apoptosis in human MDA-MB-231 cells assessed as increase in apoptotic cells incubated for 2 days by annexin-V/FITC propidium iodide staining based flow cytometry analysis; assay type: functional, cell-based; conditions: time 2.0 day
[8] = system: MDA-MB-468; experiment: Induction of apoptosis in human MDA-MB-468 cells assessed as increase in apoptotic cells incubated for 2 days by annexin-V/FITC propidium iodide staining based flow cytometry analysis; assay type: functional, cell-based; conditions: time 2.0 day
[9] = system: MDA-MB-231; experiment: Induction of apoptosis in human MDA-MB-231 cells assessed as increase in cleaved PARP1 level measured after 2 days by Western blot analysis; assay type: functional, cell-based; conditions: dose 0.5-2 µM, time 2.0 day
[10] = system: MDA-MB-468; experiment: Induction of apoptosis in human MDA-MB-468 cells assessed as increase in cleaved PARP1 level measured after 2 days by Western blot analysis; assay type: functional, cell-based; conditions: dose 0.5-2 µM, time 2.0 day
[11] = system: MDA-MB-231; experiment: Induction of apoptosis in human MDA-MB-231 cells assessed as increase in cleaved caspase7 level measured after 2 days by Western blot analysis; assay type: functional, cell-based; conditions: dose 0.5-2 µM, time 2.0 day
[12] = system: MDA-MB-468; experiment: Induction of apoptosis in human MDA-MB-468 cells assessed as increase in cleaved caspase7 level measured after 2 days by Western blot analysis; assay type: functional, cell-based; conditions: dose 0.5-2 µM, time 2.0 day
[13] = system: MDA-MB-231; experiment: Inhibition of cell proliferation in human MDA-MB-231 cells at <=10 uM incubated for 4 days in presence of uridine by CellTiter-Glo luminescent assay; assay type: functional, cell-based; conditions: dose microM <=10, time 4.0 day
[14] = system: MDA-MB-468; experiment: Inhibition of cell proliferation in human MDA-MB-468 cells at <=10 uM incubated for 4 days in presence of uridine by CellTiter-Glo luminescent assay; assay type: functional, cell-based; conditions: dose microM <=10, time 4.0 day
[15] = Antitumor activity against patient-derived breast cancer cells xenografted in NOD/SCID mouse assessed as tumor growth suppression at 5 mg/kg, ip administered 5 times a week and measured after 16 days relative to control; assay type: functional; conditions: Homo sapiens, Breast cancer cell line, 384 h, time 16 day
[16] = Antitumor activity against patient-derived breast cancer cells xenografted in NOD/SCID mouse assessed as reduction in tumor volume at 5 mg/kg, ip administered 5 times a week and measured after 16 days relative to control; assay type: functional, Homo sapiens, Breast cancer cell line; set-up: scale not given: the % may be the effect or the level left; conditions: time 16 day
[17] = Toxicity in NOD/SCID mouse xenografted with patient-derived breast cancer cells assessed as effect on body weight loss at 5 mg/kg, ip administered 5 times a week and measured after 16 days; assay type: organism-based; conditions: in vivo, 384 h, time 16 day
[18] = Toxicity in NOD/SCID mouse xenografted with patient-derived breast cancer cells assessed as effect on organ damage at 5 mg/kg, ip administered 5 times a week and measured after 16 days by hematoxylin and eosin staining based analysis; assay type: organism-based; conditions: in vivo, 384 h, time 16 day
[19] = Toxicity in NOD/SCID mouse xenografted with patient-derived breast cancer cells assessed as body weight loss at 2.5 to 10 mg/kg, ip administered 5 times a week and measured after 16 days; assay type: organism-based; conditions: in vivo, 384 h, dose 2.5-10 mg/kg, time 16 day
[20] = Toxicity in NOD/SCID mouse xenografted with patient-derived breast cancer cells assessed as liver injury at 2.5 to 10 mg/kg, ip administered 5 times a week and measured after 16 days by hematoxylin and eosin staining based analysis; assay type: organism-based; conditions: in vivo, 384 h, dose 2.5-10 mg/kg, time 16 day
[21] = Toxicity in NOD/SCID mouse xenografted with patient-derived breast cancer cells assessed as effect on body weight loss at 15 to 60 mg/kg, ip administered 5 times a week and measured after 21 days; assay type: organism-based; conditions: in vivo, 504 h, dose 15-60 mg/kg, time 21 day
[22] = Toxicity in NOD/SCID mouse xenografted with patient-derived breast cancer cells assessed as effect on organ damage at 15 to 60 mg/kg, ip administered 5 times a week and measured after 21 days by hematoxylin and eosin staining based analysis; assay type: organism-based; conditions: in vivo, 504 h, dose 15-60 mg/kg, time 21 day
[23] = system: Breast cancer cell line; experiment: Antitumor activity against patient-derived breast cancer cells xenografted in NOD/SCID mouse assessed as tumor growth suppression at 20 mg/kg, ip administered every 2 days and measured after 21 days; assay type: functional, organism-based; conditions: Homo sapiens, time 21.0 day

Chain of Dihydroorotate dehydrogenase (quinone), mitochondrial (Q02127 whole entry, the tested form may be a part): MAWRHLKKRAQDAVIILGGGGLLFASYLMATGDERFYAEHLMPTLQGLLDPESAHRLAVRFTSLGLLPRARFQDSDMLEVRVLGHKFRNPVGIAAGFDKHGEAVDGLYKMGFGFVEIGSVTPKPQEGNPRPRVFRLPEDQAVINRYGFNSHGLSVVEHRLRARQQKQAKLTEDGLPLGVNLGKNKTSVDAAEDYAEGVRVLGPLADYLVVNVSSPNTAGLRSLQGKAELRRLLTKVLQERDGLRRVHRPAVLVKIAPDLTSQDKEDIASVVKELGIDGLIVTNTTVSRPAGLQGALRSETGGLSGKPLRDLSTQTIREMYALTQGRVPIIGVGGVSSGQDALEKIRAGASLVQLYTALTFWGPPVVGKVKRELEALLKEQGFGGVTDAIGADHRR

| SMILES | IC50 ([1]; Homo sapiens, MDA-MB-231, 24 h) | IC50 ([2]; Homo sapiens, MDA-MB-468, 24 h) | IC50 [3] | also measured |
| --- | --- | --- | --- | --- |
| C/C(=C\Cc1c(O)c(Cl)c(C)c(C=O)c1O)CC/C=C(\C)CC[C@@H]1OC1(C)C | 24 µM | 16 µM | 1.6 µM |  |
| C/C(=C\Cc1c(O)c(Cl)c(C)c(C=O)c1O)CC/C=C(\C)CCC(=O)C(C)(C)O | > 60 µM | > 60 µM | 9.3 µM |  |
| C/C(=C\Cc1c(O)cc(C)c(C=O)c1O)CC[C@@]1(C)[C@H](C)CCC(=O)[C@@H]1C [ILICICOLIN F] | 26 µM | 27 µM | 11 µM |  |
| C/C(=C\Cc1c(O)c(Cl)c(C)c(C(=O)O)c1O)CC/C=C(\C)CC[C@H](O)C(C)(C)O | > 60 µM | 49 µM | 20 µM |  |
| CC(/C=C/[C@@]1(C)[C@H](C)CC[C@@H](O)[C@@H]1C)=C\Cc1c(O)c(Cl)c(C)c(C=O)c1O | > 60 µM | > 60 µM | 13 µM |  |
| C/C(=C\Cc1c(O)cc(C)c(C=O)c1O)CC/C=C(\C)CCC(=O)C(C)(C)O | > 60 µM | 57 µM | 7.9 µM |  |
| CC(/C=C/[C@@]1(C)[C@H](C)CCC(=O)[C@@H]1C)=C\Cc1c(O)c(Cl)c(C)c(C=O)c1O [ASCOCHLORIN] | 2.2 µM | 1.1 µM | 1.3 µM |  |
| C=C1CC[C@H](O)C(C)(C)[C@@H]1CC/C(C)=C/Cc1c(O)c(Cl)c(C)c(C=O)c1O | 0.65 µM | 0.48 µM | 0.074 µM | Activity [4]: Dose-Dependent Effect; Activity [5]: Dose-Dependent Effect; Activity [6]: Dose-Dependent Effect; Activity [7]: Dose-Dependent Effect; Activity [8]: Dose-Dependent Effect; Activity [9]: Dose-Dependent Effect; Activity [10]: Dose-Dependent Effect; Activity [11]: Dose-Dependent Effect; Activity [12]: Dose-Dependent Effect; inhibition [13]: inactive; inhibition [14]: inactive; inhibition in vivo at 5 mg/kg [15]: 51.7%; Activity [16]: 37.41%; Activity [17]: Non-Toxic; Activity [18]: Non-Toxic |
| O=c1[nH]cc(F)c(=O)[nH]1 [FLUOROURACIL] | 15 µM | > 20 µM |  |  |
| C=C(/C=C/[C@@]1(C)[C@H](C)CCC(=O)[C@@H]1C)[C@H](O)Cc1c(O)c(Cl)c(C)c(C=O)c1O | 45 µM | 34 µM | 3.9 µM |  |
| C/C(=C\Cc1c(O)c(Cl)c(C)c(C=O)c1O)CC/C=C(\C)[C@@H]1C[C@H](O)C(C)(C)O1 | 12 µM | 11 µM | 0.72 µM |  |
| Cc1c(-c2ccc(-c3ccccc3F)cc2)nc2ccc(F)cc2c1C(=O)O [BREQUINAR] |  |  |  | IC50 ([1]; mda-mb-231): 0.31 µM; IC50 ([2]; mda-mb-468): 0.082 µM; Activity [19]: Toxic; Activity [20]: Toxic |
| C/C(=C\Cc1c(O)c(Cl)c(C)c(C=O)c1O)CC[C@H]1C(C)(C)C(=O)CC[C@@]1(C)O | > 60 µM | > 60 µM | 11 µM |  |
| C/C(=C\Cc1c(O)cc(C)c(C=O)c1O)CC/C=C(\C)CC[C@H](O)C(C)(C)O | > 60 µM | 29 µM | 5 µM |  |
| C/C(=C\Cc1c(O)c(Cl)c(C)c(C=O)c1O)CC[C@@]1(C)[C@H](C)CCC(=O)[C@@H]1C [ILICICOLIN C] | 34 µM | 13 µM | 1.9 µM |  |
| C/C(=C\Cc1c(O)c(Cl)c(C)c(C=O)c1O)CC/C=C(\C)CC[C@H](O)C(C)(C)O | 23 µM | 20 µM | 3.7 µM |  |
| CC(=O)O[C@@H](CC/C(C)=C/CC/C(C)=C/Cc1c(O)c(Cl)c(C)c(C=O)c1O)C(C)(C)O | 7.4 µM | 6 µM | 30 µM | Activity [7]: Dose-Dependent Effect; Activity [8]: Dose-Dependent Effect; inhibition [13]: inactive; inhibition [14]: inactive; Activity [21]: Non-Toxic; Activity [22]: Non-Toxic |
| C/C(O)=C(\C#N)C(=O)Nc1ccc(C(F)(F)F)cc1 [TERIFLUNOMIDE] | 14 µM | > 20 µM |  | inhibition [23]: Active |
| C/C(=C\Cc1c(O)c(Cl)c(C)c(C=O)c1O)[C@H](O)C[C@@]1(C)[C@H](C)CCC(=O)[C@@H]1C | 38 µM | 45 µM | 6.5 µM |  |
| Cc1c(Cl)c(O)c(C[C@@H]2[C@@]3(C)CC[C@H](O)C(C)(C)[C@@H]3CC[C@@]2(C)O)c(O)c1C=O | > 60 µM | > 60 µM | 31 µM |  |
| C=C(C)[C@@H](O)CC/C(C)=C/CC/C(C)=C/Cc1c(O)c(Cl)c(C)c(C=O)c1O | 3.3 µM | 1.7 µM | 0.39 µM |  |
| C/C(=C\Cc1c(O)c(Cl)c(C)c(C=O)c1O)CC/C(C)=C(\C)C(C)CCCO (stereo not given) | 12 µM | 7.5 µM | 32 µM |  |
| CC(/C=C/[C@@]1(C)[C@H](C)CCC(=O)[C@@H]1C)=C\Cc1c(O)cc(C)c(C=O)c1O | > 60 µM | 38 µM | 42 µM |  |
| C/C(=C\Cc1c(O)c(Cl)c(C)c(C=O)c1O)CC[C@H]1C(C)(C)C(=O)CC[C@]1(C)O | > 60 µM | > 60 µM | 34 µM |  |
| C=C1CCC(=O)C(C)(C)[C@@H]1CC/C(C)=C/Cc1c(O)c(Cl)c(C)c(C(=O)O)c1O | > 60 µM | > 60 µM | 15 µM |  |
| Cc1c(Cl)c2c(c(O)c1C=O)C[C@H]([C@@](C)(O)/C=C/[C@@]1(C)[C@H](C)CCC(=O)[C@@H]1C)O2 | 25 µM | 26 µM | > 60 µM |  |
| C/C(=C\Cc1c(O)c(Cl)c(C)c(C=O)c1O)CC/C=C(\C)[C@@H]1CC(=O)C(C)(C)O1 [ASCOFURANONE] | 5.2 µM | 7.1 µM | 5.4 µM |  |
| C/C(=C\C[C@@]1(C)[C@H](C)CCC(=O)[C@@H]1C)[C@@H](O)Cc1c(O)c(Cl)c(C)c(C=O)c1O | 41 µM | 15 µM | 4.7 µM |  |
